How the values were obtained:
Experiment in all cases: combination Emax (second highest fraction inhibited in the dose matrix, 72 h); higher = more inhibition; extreme values may be limits of the assay
[1] = system: A549 (Lung Adenocarcinoma)
Outline: (§1)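 Bliss excess equals the observed combination effect minus the expected value EA + EB − EA·EB, where EA and EB are the effects of each agent alone. Combination Emax is the second-highest inhibition within the matrix. Inhibition was scaled from CellTiter-Glo 2.0 luminescence, with 0 set by vehicle wells and 1 by blank wells, after 72 hours of two-drug dosing of cells plated in 1536-well plates.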

ARH-77 (Non-Cancerous) = system: ARH-77 (Non-Cancerous)
Outline: as §1

[2] = system: CAPAN-2 (Pancreatic Carcinoma)
Outline: as §1

[3] = system: CCK-81 (Colorectal Carcinoma)
Outline: as §1

[4] = system: COLO-824 (Breast Carcinoma)
Outline: as §1

[5] = system: ECC10 (Gastric Carcinoma)
Outline: as §1

FU97 (Gastric Carcinoma) = system: FU97 (Gastric Carcinoma)
Outline: as §1

GI-ME-N (Neuroblastoma) = system: GI-ME-N (Neuroblastoma)
Outline: as §1

Hs-445 (Non-Cancerous) = system: Hs-445 (Non-Cancerous)
Outline: as §1

LN-405 (Glioblastoma) = system: LN-405 (Glioblastoma)
Outline: as §1

[6] = system: NCI-H1693 (Lung Adenocarcinoma)
Outline: as §1

[7] = system: NCI-H2141 (Small Cell Lung Carcinoma)
Outline: as §1

[8] = system: NCI-H64 (Small Cell Lung Carcinoma)
Outline: as §1

NY (Osteosarcoma) = system: NY (Osteosarcoma)
Outline: as §1

[9] = system: OS-RC-2 (Kidney Carcinoma)
Outline: as §1

[10] = system: PANC-10-05 (Pancreatic Carcinoma)
Outline: as §1

[11] = system: SK-MES-1 (Squamous Cell Lung Carcinoma)
Outline: as §1

[12] = system: SK-MG-1 (Low Grade Glioma)
Outline: as §1

U-2-OS (Osteosarcoma) = system: U-2-OS (Osteosarcoma)
Outline: as §1

[13] = system: VCaP (Prostate Carcinoma)
Outline: as §1

| Structure (SMILES) | combination Emax [1] | combination Emax (ARH-77 (Non-Cancerous)) | combination Emax [2] | combination Emax [3] | combination Emax [4] | combination Emax [5] | combination Emax (FU97 (Gastric Carcinoma)) | combination Emax (GI-ME-N (Neuroblastoma)) | combination Emax (Hs-445 (Non-Cancerous)) | combination Emax (LN-405 (Glioblastoma)) | combination Emax [6] | combination Emax [7] | combination Emax [8] | combination Emax (NY (Osteosarcoma)) | combination Emax [9] | combination Emax [10] | combination Emax [11] | combination Emax [12] | combination Emax (U-2-OS (Osteosarcoma)) | combination Emax [13] |
| --- | --- | --- | --- | --- | --- | --- | --- | --- | --- | --- | --- | --- | --- | --- | --- | --- | --- | --- | --- | --- |
| COc1nnc2ccc(N3CCC(c4ccc(OCCN5CCN(C)C(=O)[C@H]5C)cc4)CC3)nn12 [AZD5153] + C=CCn1c(=O)c2cnc(Nc3ccc(N4CCN(C)CC4)cc3)nc2n1-c1cccc(C(C)(C)O)n1 [AZD1775] (first compound max 1 µM, partner max 1 µM) | 0.885 | 0.968 | 0.328 | 0.869 | 0.863 | 0.901 | 0.792 | 0.393 | 0.71 | 0.535 | 0.565 | 0.659 | 0.884 | 0.567 | 0.486 | 0.597 | 0.743 | 0.618 | 0.635 | 0.767 |
| COc1nnc2ccc(N3CCC(c4ccc(OCCN5CCN(C)C(=O)[C@H]5C)cc4)CC3)nn12 [AZD5153] + CC1(C)CCC(CN2CCN(c3ccc(C(=O)NS(=O)(=O)c4ccc(NCC5CCOCC5)c([N+](=O)[O-])c4)c(Oc4cnc5[nH]ccc5c4)c3)CC2)=C(c2ccc(Cl)cc2)C1 [Venetoclax] (first compound max 1 µM, 7x7, partner max 1 µM) | 0.707 | 0.861 | 0.299 | 0.848 | 0.881 | 0.985 | 0.754 | 0.285 | 0.724 | 0.441 | 0.514 | 0.262 | 0.226 | 0.542 | 0.273 | 0.474 | 0.472 | 0.425 | 0.321 | 0.777 |
| COc1nnc2ccc(N3CCC(c4ccc(OCCN5CCN(C)C(=O)[C@H]5C)cc4)CC3)nn12 [AZD5153] + CCN(CCO)CCCOc1ccc2c(Nc3cc(CC(=O)Nc4cccc(F)c4)[nH]n3)ncnc2c1 [AZD2811] (first compound max 1 µM, 7x7, partner max 1 µM) | 0.834 | 0.82 | 0.296 | 0.858 | 0.845 | 0.884 | 0.766 | 0.341 | 0.509 | 0.515 | 0.46 | 0.297 | 0.609 | 0.517 | 0.304 | 0.554 | 0.507 | 0.566 | 0.405 | 0.789 |
| COc1nnc2ccc(N3CCC(c4ccc(OCCN5CCN(C)C(=O)[C@H]5C)cc4)CC3)nn12 [AZD5153] + C[C@@H]1COCCN1C2=NC(=NC(=C2)C3(CC3)[S@](=N)(=O)C)C4=C5C=CNC5=NC=C4 [AZD6738] (first compound max 1 µM, 7x7, partner max 10 µM) | 0.912 | 0.991 | 0.379 | 0.95 | 0.869 | 0.916 | 0.839 | 0.464 | 0.727 | 0.53 | 0.597 | 0.578 | 0.927 | 0.627 | 0.467 | 0.682 | 0.769 | 0.595 | 0.589 | 0.839 |
| COc1nnc2ccc(N3CCC(c4ccc(OCCN5CCN(C)C(=O)[C@H]5C)cc4)CC3)nn12 [AZD5153] + Cc1c2c(nn1C)CSCc1cc(n(C)n1)CSc1cc(c3ccccc3c1)OCCCc1c(C(=O)O)n(C)c3c-2c(Cl)ccc13 [AZD5991] (first compound max 1 µM, 7x7, partner max 1 µM) | 0.821 | 0.831 | 0.296 | 0.916 | 0.724 | 1 | 0.95 | 0.377 | 0.618 | 0.574 | 0.56 | 0.346 | 0.399 | 0.688 | 0.372 | 0.515 | 0.558 | 0.425 | 0.418 | 0.988 |
| COc1nnc2ccc(N3CCC(c4ccc(OCCN5CCN(C)C(=O)[C@H]5C)cc4)CC3)nn12 [AZD5153] + Cn1cnc2c(F)c(Nc3ccc(Br)cc3Cl)c(C(=O)NOCCO)cc21 [Selumetinib] (first compound max 1 µM, 7x7, partner max 10 µM) | 0.917 | 0.839 | 0.452 | 1 | 0.694 | 0.955 | 0.701 | 0.349 | 0.555 | 0.332 | 0.569 | 0.276 | 0.237 | 0.52 | 0.343 | 0.633 | 0.717 | 0.467 | 0.628 | 0.797 |
| Cc1c2c(nn1C)CSCc1cc(n(C)n1)CSc1cc(c3ccccc3c1)OCCCc1c(C(=O)O)n(C)c3c-2c(Cl)ccc13 [AZD5991] + C1CN(CCC1(C(=O)N[C@@H](CCO)C2=CC=C(C=C2)Cl)N)C3=NC=NC4=C3C=CN4 [Capivasertib] (first compound max 1 µM, 7x7, partner max 3 µM) | 0.379 | 0.915 | 0.227 | 0.918 | 0.601 | 0.721 | 0.485 | 0.27 | 0.988 | 0.404 | 0.164 | 0.314 | 0.378 | 0.492 | 0.256 | 0.357 | 0.262 | 0.444 | 0.219 | 1 |
| Cc1c2c(nn1C)CSCc1cc(n(C)n1)CSc1cc(c3ccccc3c1)OCCCc1c(C(=O)O)n(C)c3c-2c(Cl)ccc13 [AZD5991] + C=CCn1c(=O)c2cnc(Nc3ccc(N4CCN(C)CC4)cc3)nc2n1-c1cccc(C(C)(C)O)n1 [AZD1775] (first compound max 1 µM, partner max 1 µM) | 0.425 | 0.995 | 0.428 | 0.928 | 0.667 | 0.858 | 0.436 | 0.532 | 1 | 0.55 | 0.386 | 0.652 | 0.933 | 0.747 | 0.303 | 0.573 | 0.593 | 0.783 | 0.809 | 0.916 |
| Cc1c2c(nn1C)CSCc1cc(n(C)n1)CSc1cc(c3ccccc3c1)OCCCc1c(C(=O)O)n(C)c3c-2c(Cl)ccc13 [AZD5991] + CC1(C)CCC(CN2CCN(c3ccc(C(=O)NS(=O)(=O)c4ccc(NCC5CCOCC5)c([N+](=O)[O-])c4)c(Oc4cnc5[nH]ccc5c4)c3)CC2)=C(c2ccc(Cl)cc2)C1 [Venetoclax] (first compound max 1 µM, 7x7, partner max 1 µM) | 0.216 | 0.859 | 0.153 | 0.871 | 0.997 | 1 | 0.243 | 0.354 | 0.962 | 0.425 | 0.143 | 0.659 | 0.359 | 0.729 | 0.133 | 0.188 | 0.146 | 0.178 | 0.271 | 0.913 |
| Cc1c2c(nn1C)CSCc1cc(n(C)n1)CSc1cc(c3ccccc3c1)OCCCc1c(C(=O)O)n(C)c3c-2c(Cl)ccc13 [AZD5991] + CCN(CCO)CCCOc1ccc2c(Nc3cc(CC(=O)Nc4cccc(F)c4)[nH]n3)ncnc2c1 [AZD2811] (first compound max 1 µM, 7x7, partner max 1 µM) | 0.41 | 0.904 | 0.239 | 0.875 | 0.815 | 0.957 | 0.284 | 0.354 | 0.968 | 0.437 | 0.211 | 0.428 | 0.788 | 0.48 | 0.21 | 0.303 | 0.408 | 0.465 | 0.307 | 0.94 |
| Cc1c2c(nn1C)CSCc1cc(n(C)n1)CSc1cc(c3ccccc3c1)OCCCc1c(C(=O)O)n(C)c3c-2c(Cl)ccc13 [AZD5991] + CN(C)CCCOc1ccc(-c2ccc3ncc4c(c3c2)n(C2CCOCC2)c(=O)n4C)cn1 [AZD0156] (first compound max 1 µM, 7x7, partner max 1 µM) | 0.323 | 0.867 | 0.276 | 0.88 | 0.411 | 0.66 | 0.318 | 0.307 | 0.949 | 0.376 | 0.211 | 0.265 | 0.346 | 0.399 | 0.25 | 0.334 | 0.196 | 0.539 | 0.263 | 0.913 |
| Cc1c2c(nn1C)CSCc1cc(n(C)n1)CSc1cc(c3ccccc3c1)OCCCc1c(C(=O)O)n(C)c3c-2c(Cl)ccc13 [AZD5991] + C[C@@H]1COCCN1C2=NC(=NC(=C2)C3(CC3)[S@](=N)(=O)C)C4=C5C=CNC5=NC=C4 [AZD6738] (first compound max 1 µM, 7x7, partner max 10 µM) | 0.726 | 0.976 | 0.35 | 0.979 | 0.868 | 0.766 | 0.392 | 0.431 | 1 | 0.668 | 0.432 | 0.628 | 0.905 | 0.805 | 0.363 | 0.488 | 0.785 | 0.566 | 0.599 | 0.947 |

— the supplement of paper PMC11061612
